The target in this assay is T1, TPM3-TRKA fusion protein (Homo sapiens, UniProt P04629).
T1 construct: The resulted chimeric proteins always retain the kinase domain of TRK proteins; TPM3 (fusion partner, N-terminal part of tropomyosin alpha-3, P06753); endogenous in cells; host or cells: KM12 colon cancer cells; the other entry of the earlier key: TPM3 (P06753, Tropomyosin alpha-3 chain)
Description: TPM3-TRKA fusion protein levels in KM12 cells (Western blot). It counts as cell-based. The settings on record: 16 h; TPM3-TRKA degradation in KM12 cells at 10 nM compound, category of percentage degradation; read-out: Degradation (at 10 nM). Summed up: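 KM12 colon cancer cells were treated with DMSO or compounds at 0.1–100 nM, 0.4–30 nM or other stated concentrations for 4, 8–16 or 16 h. RIPA lysates were BCA-normalized and resolved by SDS-PAGE. TPM3-TRKA was detected by chemiluminescent Western blot, with bands quantified by densitometry.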
On the technique in general: In western blotting, separated proteins are transferred to a membrane and probed.

A value given as a limit tells only on which side of the number the result lay.

T1 sequence (P04629 with tags, fused parts or gaps): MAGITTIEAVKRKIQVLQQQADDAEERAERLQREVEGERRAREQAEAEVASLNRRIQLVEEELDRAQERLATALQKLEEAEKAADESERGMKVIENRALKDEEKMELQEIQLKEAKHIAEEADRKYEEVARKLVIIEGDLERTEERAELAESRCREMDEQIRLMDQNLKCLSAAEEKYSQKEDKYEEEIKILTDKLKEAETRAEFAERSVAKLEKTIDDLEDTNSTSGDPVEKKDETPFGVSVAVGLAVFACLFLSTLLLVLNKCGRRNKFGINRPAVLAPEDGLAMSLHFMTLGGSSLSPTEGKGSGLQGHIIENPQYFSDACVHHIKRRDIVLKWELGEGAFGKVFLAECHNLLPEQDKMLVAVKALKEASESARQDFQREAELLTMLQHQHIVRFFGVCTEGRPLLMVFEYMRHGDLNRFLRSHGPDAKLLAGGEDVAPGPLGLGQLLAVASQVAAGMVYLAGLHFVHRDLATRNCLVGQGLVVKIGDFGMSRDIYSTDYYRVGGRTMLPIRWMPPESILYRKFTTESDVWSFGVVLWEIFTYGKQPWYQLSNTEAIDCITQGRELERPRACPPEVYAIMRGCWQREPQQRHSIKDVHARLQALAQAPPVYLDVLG

On to `O=C(CN1CCN(c2ccc(C(=O)Nc3n[nH]c4ccc(Cc5cc(F)cc(F)c5)cc34)c(NC3CCOCC3)c2)CC1)NCCCCCCNc1cccc2c1C(=O)N(C1CCC(=O)NC1=O)C2=O` (stereo not drawn) [TR-147, N—(S-(3,5-Difluorobenzyl)-1H-indazol-3-yl)-4-(4-(2-((6-((2-(2,6-dioxopiperidin-3-yl)-1,3-dioxoisoindolin-4-yl)amino)hexyl)amino)-2-oxoethyl)piperazin-1-yl)-2-((tetrahydro-2H-pyran-4-yl)amino)benzamide], for which the percent degradation of TPM3-TRKA protein at 0.01 µM is more than 80%.

With `O=C(CN1CCN(c2ccc(C(=O)Nc3n[nH]c4ccc(Cc5cc(F)cc(F)c5)cc34)c(NC3CCOCC3)c2)CC1)NCCCCCNc1cccc2c1C(=O)N(C1CCC(=O)NC1=O)C2=O` (centres unmarked) [TR-149, N-(5-(3,5-Difluorobenzyl)-1H-indazol-3-yl)-4-(4-(2-((5-((2-(2,6-dioxopiperidin-3-yl)-1,3-dioxoisoindolin-4-yl)amino)pentyl)amino)-2-oxoethyl)piperazin-1-yl)-2-((tetrahydro-2H-pyran-4-yl)amino)benzamide], the percent degradation of TPM3-TRKA protein at 0.01 µM was more than 80%.

Consider `O=C(CN1CCN(c2ccc(C(=O)Nc3n[nH]c4ccc(Cc5cc(F)cc(F)c5)cc34)c(NC3CCOCC3)c2)CC1)NCCOCCOCCOCCOCCNc1cccc2c1C(=O)N(C1CCC(=O)NC1=O)C2=O` (centres unmarked) [TR-150, N-(5-(3,5-Difluorobenzyl)-1H-indazol-3-yl)-4-(4-(17-((2˜ (2,6-dioxopiperidin-3-yl)-1,3-dioxoisoindolin-4-yl)amino)-2-oxo-6,9,12,15-tetraoxa-3-azaheptadecyl)piperazin-1-yl)-2˜ ((tetrahydro-2H-pyran-4-yl)amino)benzamide], for which the percent degradation of TPM3-TRKA protein at 0.01 µM is more than 80%.

Turning to `O=C(CN1CCN(c2ccc(C(=O)Nc3n[nH]c4ccc(Cc5cc(F)cc(F)c5)cc34)c(NC3CCOCC3)c2)CC1)NCCOCCNc1cccc2c1C(=O)N(C1CCC(=O)NC1=O)C2=O` (centres unmarked) [TR-151, N-(5-(3,5-Difluorobenzyl)-1H-indazol-3-yl)-4-(4-(2-((2-(2-((2-(2,6-dioxopiperidin-3-yl)-1,3-dioxoisoindolin-4-yl)amino)ethoxy)ethyl)amino)-2-oxoethyl)piperazin-1-yl)-2-((tetrahydro-2H-pyran-4-yl)amino)benzamide], the percent degradation of TPM3-TRKA protein at 0.01 µM was more than 80%.

Consider `O=C(CN1CCN(c2ccc(C(=O)Nc3n[nH]c4ccc(Cc5cc(F)cc(F)c5)cc34)c(NC3CCOCC3)c2)CC1)NCCCNc1cccc2c1C(=O)N(C1CCC(=O)NC1=O)C2=O` (centres unmarked) [TR-152, N-(5-(3,5-Difluorobenzyl)-1H-indazol-3-yl)-4-(4-(2-((3-((2-(2,6-dioxopiperidin-3,3-yl)-1,3-dioxoisoindolin-4-yl)amino)propyl)amino)-2-oxocthyl)piperazin-1-yl)-2-((tetrahydro-2H-pyran-4-yl)amino)benzamide], for which the percent degradation of TPM3-TRKA protein at 0.01 µM was more than 80%.

Take `O=C(CN1CCN(c2ccc(C(=O)Nc3n[nH]c4ccc(Cc5cc(F)cc(F)c5)cc34)c(NC3CCOCC3)c2)CC1)NCCOCCOCCNc1cccc2c1C(=O)N(C1CCC(=O)NC1=O)C2=O` (centres unmarked) [TR-153, N-(5-(3,5-Difluorobenzyl)-1H-indazol-3-yl)-4-(4-(2-((2-(2-(2-((2-(2,6-dioxopiperidin-3-yl)-1,3-dioxoisoindolin-4-yl)amino)ethoxy)ethoxy)ethyl)amino)-2-oxoethyl)piperazin-1-yl)-2-((tetrahydro-2H-pyran-4-yl)amino)benzamide]: the percent degradation of TPM3-TRKA protein at 0.01 µM is more than 80%.

For the compound `O=C(CN1CCN(c2ccc(C(=O)Nc3n[nH]c4ccc(Cc5cc(F)cc(F)c5)cc34)c(NC3CCOCC3)c2)CC1)NCCCCNc1cccc2c1C(=O)N(C1CCC(=O)NC1=O)C2=O` (centres unmarked) [TR-155, N-(5-(3,5-Difluorobenzyl)-1H-indazol-3-yl)-4-(4-(2-((4-((2-(2,6-dioxopiperidin-3-yl)-1,3-dioxoisoindolin-4-yl)amino)butyl)amino)-2-oxoethyl)piperazin-1-yl)-2-((tetrahydro-2/-pyran-4-yl)amino)benzamide], the percent degradation of TPM3-TRKA protein at 0.01 µM is more than 80%.

Turning to `O=C(CN1CCN(c2ccc(C(=O)Nc3n[nH]c4ccc(Cc5cc(F)cc(F)c5)cc34)c(NC3CCOCC3)c2)CC1)NCCCCNc1ccc2c(c1)C(=O)N(C1CCC(=O)NC1=O)C2=O` (centres unmarked) [TR-156, N-(5-(3,5-Difluorobenzyl)-1H-indazol-3-yl)-4-(4-(2-((4-((2-(2,6-dioxopiperidin-3-yl)-1,3-dioxoisoindolin-S-yl)amino)butyl)amino)-2-oxoethyl)piperazin-1-yl)-2-((tetrahydro-2H-pyran-4-yl)amino)benzamide], the percent degradation of TPM3-TRKA protein at 0.01 µM was more than 80%.

On to `O=C(CN1CCN(c2ccc(C(=O)Nc3n[nH]c4ccc(Cc5cc(F)cc(F)c5)cc34)c(NC3CCOCC3)c2)CC1)NCCCCCCCNc1ccc2c(c1)C(=O)N(C1CCC(=O)NC1=O)C2=O` (centres unmarked) [TR-157, N-(5-(3,5-Difluorobenzyl)-1H-indazol-3-yl)-4-(4-(2-((7-((2-(2,6-dioxopiperidin-3-yl)-1,3-dioxoisoindolin-5-yl)amino)heptyl)amino)-2-oxoethyl)piperazin-1-yl)-2-((tetrahydro-2H-pyran-4-yl)amino)benzamide], for which the percent degradation of TPM3-TRKA protein at 0.01 µM was more than 80%.

For the compound `O=C(CN1CCN(c2ccc(C(=O)Nc3n[nH]c4ccc(Cc5cc(F)cc(F)c5)cc34)c(NC3CCOCC3)c2)CC1)NCCOCCOCCOCCOCCNc1ccc2c(c1)C(=O)N(C1CCC(=O)NC1=O)C2=O` (centres unmarked) [TR-160, N-(5-(3,5-Difluorobenzyl)-1H-indazol-3-yl)-4-(4-(17-((2-(2,6-dioxopiperidin-3-yl)-1,3-dioxoisoindolin-S-yl)amino)-2-oxo-6,9,12,15-tetraoxa-3-azaheptadecyl)piperazin-1-yl)-2-((tetrahydro-2H-pyran-4-yl)amino)benzamide], the percent degradation of TPM3-TRKA protein at 0.01 µM is more than 80%.

Turning to `O=C(CN1CCN(c2ccc(C(=O)Nc3n[nH]c4ccc(Cc5cc(F)cc(F)c5)cc34)c(NC3CCOCC3)c2)CC1)NCCOCCNc1ccc2c(c1)C(=O)N(C1CCC(=O)NC1=O)C2=O` (centres unmarked) [TR-161, N-(5-(3,5-Difluorobenzyl)-1H-indazol-3-yl)-4-(4-(2-((2-(2-((2-(2,6-dioxopiperidin-3-yl)-1,3-dioxoisoindolin-5-yl)amino)ethoxy)ethyl)amino)-2-oxoethyl)piperazin-1-yl)-2-((tetrahydro-2H-pyran-4-yl)amino)benzamide], the percent degradation of TPM3-TRKA protein at 0.01 µM was more than 80%.

On to `O=C(CN1CCN(c2ccc(C(=O)Nc3n[nH]c4ccc(Cc5cc(F)cc(F)c5)cc34)c(NC3CCOCC3)c2)CC1)NCCOCCOCCNc1ccc2c(c1)C(=O)N(C1CCC(=O)NC1=O)C2=O` (centres unmarked) [TR-162, N-(5-(3,5-Difluorobenzyl)-1H-indazol-3-yl)-4-(4-(2-((2-(2-(2-((2-(2,6-dioxopiperidin-3-yl)-1,3-dioxoisoindolin-5-yl)amino)ethoxy)ethoxy)ethyl)amino)-2-oxocthyl)piperazin-1-yl)-2-((tetrahydro-2H-pyran-4-yl)amino)benzamide], for which the percent degradation of TPM3-TRKA protein at 0.01 µM was more than 80%.

Consider `O=C(CN1CCN(c2ccc(C(=O)Nc3n[nH]c4ccc(Cc5cc(F)cc(F)c5)cc34)c(NC3CCOCC3)c2)CC1)NCCOCCOCCOCCNc1ccc2c(c1)C(=O)N(C1CCC(=O)NC1=O)C2=O` (stereo not drawn) [TR-163, N—(S-(3,5-Difluorobenzyl)-1H-indazol-3-yl)-4-(4-(14-((2-(2,6-dioxopiperidin-3-yl)-1,3-dioxoisoindolin-5-yl)amino)-2-oxo-6,9,12-trioxa-3-azatetradecyl)piperazin-1-yl)-2˜ ((tetrahydro-2H-pyran-4-yl)amino)benzamide], for which the percent degradation of TPM3-TRKA protein at 0.01 µM was more than 80%.

For `O=C(CN1CCN(c2ccc(C(=O)Nc3n[nH]c4ccc(Cc5cc(F)cc(F)c5)cc34)c(NC3CCOCC3)c2)CC1)NCCCCCNc1ccc2c(c1)C(=O)N(C1CCC(=O)NC1=O)C2=O` (centres unmarked) [TR-164, N-(5-(3,5-Difluorobenzyl)-1H-indazol-3-yl)-4-(4-(2-((5-((2-(2,6-dioxopiperidin-3-yl)-1,3-dioxoisoindolin-5-yl)amino)pentyl)amino)-2-oxoethyl)piperazin-1-yl)-2-((tetrahydro-2H-pyran-4-yl)amino)benzamide], the percent degradation of TPM3-TRKA protein at 0.01 µM was more than 80%.

Consider `O=C(CN1CCN(c2ccc(C(=O)Nc3n[nH]c4ccc(Cc5cc(F)cc(F)c5)cc34)c(NC3CCOCC3)c2)CC1)NCCNc1ccc2c(c1)C(=O)N(C1CCC(=O)NC1=O)C2=O` (centres unmarked) [TR-165, N-(5-(3,5-Difluorobenzyl)-1H-indazol-3-yl)-4-(4-(2-((2-((2-(2,6-dioxopiperidin-3-yl)-1,3-dioxoisoindolin-5-yl)amino)ethyl)amino)-2-oxoethyl)piperazin-1-yl)-2-((tetrahydro-2H-pyran-4-yl)amino)benzamide], for which the percent degradation of TPM3-TRKA protein at 0.01 µM was more than 80%.

For the compound `O=C(CN1CCN(c2ccc(C(=O)Nc3n[nH]c4ccc(Cc5cc(F)cc(F)c5)cc34)c(NC3CCOCC3)c2)CC1)NCCOCCOCCOCCOCCOCCNc1ccc2c(c1)C(=O)N(C1CCC(=O)NC1=O)C2=O` (centres unmarked) [TR-166, N-(5-(3,5-Difluorobenzyl)-1H-indazol-3-yl)-4-(4-(20-((2-(2,6-dioxopiperidin-3-yl)-1,3-dioxoisoindolin-5-yl)amino)-2-oxo-6,9,12,15,18-pentaoxa-3-azaicosyl)piperazin-1-yl)-2-((tetrahydro-28-pyran-4-yl)amino)benzamide], the percent degradation of TPM3-TRKA protein at 0.01 µM was more than 80%.

In the case of `O=C(CN1CCN(c2ccc(C(=O)Nc3n[nH]c4ccc(Cc5cc(F)cc(F)c5)cc34)c(NC3CCOCC3)c2)CC1)NCCCNc1ccc2c(c1)C(=O)N(C1CCC(=O)NC1=O)C2=O` (centres unmarked) [TR-167, N-(5-(3,5-Difluorobenzyl)-1H-indazol-3-yl)-4-(4-(2-((3-((2-(2,6-dioxopiperidin-3-yl)-1,3-dioxoisoindolin-5-yl)amino)propyl)amino)-2-oxocthyl)piperazin-1-yl)-2-((tetrahydro-2H-pyran-4-yl)amino)benzamide], the percent degradation of TPM3-TRKA protein at 0.01 µM is more than 80%.

The values are drawn from US12410171B2, “Tropomyosin receptor kinase (TRK) degradation compounds and methods of use” (Cullgen (Shanghai), Inc., priority 2020, dated 2025).
